According to paper PMC5218480 (PLoS ONE, 2017):

System: MV-4-11 cells
Test: Gene expression microarray analysis (Affymetrix PrimeView) and GSEA
Format: cell-based, human
Design: RFU PODN (11730768_x_at) / Fold change /veh PODN (11730768_x_at) / RFU LINC00158 (11744669_a_at) / Fold change /veh LINC00158 (11744669_a_at) / RFU DUSP10 (11751237_a_at) / Fold change /veh DUSP10 (11751237_a_at) / RFU ID3 (11757404_x_at) / Fold change /veh ID3 (11757404_x_at) / RFU PLEKHG5 (11737974_s_at) / Fold change /veh PLEKHG5 (11737974_s_at) / RFU LRRC4B (11730491_at) / Fold change /veh LRRC4B (11730491_at) / RFU GIMAP4 (11747438_a_at) / Fold change /veh GIMAP4 (11747438_a_at) / RFU KRT8 (11758183_x_at) / Fold change /veh KRT8 (11758183_x_at) / RFU CNN1 (11734310_a_at) / Fold change /veh CNN1 (11734310_a_at) / RFU VPS37D (11726825_at) / Fold change /veh VPS37D (11726825_at) / RFU C10orf10 (11716522_x_at) / Fold change /veh C10orf10 (11716522_x_at) / RFU KIR2DL2 /// KIR2DL4 /// KIR2DL5A /// KIR2DL5B /// KIR2DS1 /// KIR2DS2 /// KIR2DS3 /// KIR2DS4 /// KIR3DL3 /// KIR3DL3 /// KIR3DS1 (11738374_at) / Fold change /veh KIR2DL2 /// KIR2DL4 /// KIR2DL5A /// KIR2DL5B /// KIR2DS1 /// KIR2DS2 /// KIR2DS3 /// KIR2DS4 /// KIR3DL3 /// KIR3DL3 /// KIR3DS1 (11738374_at) / RFU C1QL1 (11718748_at) / Fold change /veh C1QL1 (11718748_at) / RFU TMPRSS4 (11747572_a_at) / Fold change /veh TMPRSS4 (11747572_a_at) / RFU HAMP (11756126_x_at) / Fold change /veh HAMP (11756126_x_at) / RFU RNFT2 (11725882_a_at) / Fold change /veh RNFT2 (11725882_a_at) / RFU NR4A2 (11747474_a_at) / Fold change /veh NR4A2 (11747474_a_at) / RFU ABCC12 (11746883_a_at) / Fold change /veh ABCC12 (11746883_a_at) / RFU TMEM136 (11760407_x_at) / Fold change /veh TMEM136 (11760407_x_at) / RFU CLDN22 /// WWC2 (11732394_at) / Fold change /veh CLDN22 /// WWC2 (11732394_at) / RFU HLA-DPB1 (11760878_x_at) / Fold change /veh HLA-DPB1 (11760878_x_at) / RFU SPINT1 (11716480_a_at) / Fold change /veh SPINT1 (11716480_a_at) / RFU GAP43 (11754022_s_at) / Fold change /veh GAP43 (11754022_s_at) / RFU A4GNT (11735810_at) / Fold change /veh A4GNT (11735810_at) / RFU PRB3 (11715151_x_at) / Fold change /veh PRB3 (11715151_x_at) / RFU TUBB4B (11761932_at) / Fold change /veh TUBB4B (11761932_at) / RFU CAPN14 (11732068_a_at) / Fold change /veh CAPN14 (11732068_a_at) / RFU TMCC2 (11721928_a_at) / Fold change /veh TMCC2 (11721928_a_at) / RFU IRGQ (11745062_a_at) / Fold change /veh IRGQ (11745062_a_at) / RFU FAM174B (11720279_a_at) / Fold change /veh FAM174B (11720279_a_at) / RFU TMPRSS4 (11748680_a_at) / Fold change /veh TMPRSS4 (11748680_a_at) / RFU FAM212B (11763350_a_at) / Fold change /veh FAM212B (11763350_a_at) / RFU PLEKHG5 (11743358_a_at) / Fold change /veh PLEKHG5 (11743358_a_at) / RFU ZSCAN30 (11745921_a_at) / Fold change /veh ZSCAN30 (11745921_a_at) / RFU CMKLR1 (11741424_a_at) / Fold change /veh CMKLR1 (11741424_a_at) / RFU LOC101060620 /// MAPK8IP1 (11723275_at) / Fold change /veh LOC101060620 /// MAPK8IP1 (11723275_at) / RFU SPTSSB (11747773_x_at) / Fold change /veh SPTSSB (11747773_x_at) / RFU PRSS12 (11739890_at) / Fold change /veh PRSS12 (11739890_at) / RFU BIN1 (11741810_x_at) / Fold change /veh BIN1 (11741810_x_at) / RFU WNT11 (11732464_a_at) / Fold change /veh WNT11 (11732464_a_at) / RFU C10orf10 (11716521_a_at) / Fold change /veh C10orf10 (11716521_a_at) / RFU C5orf56 (11738089_at) / Fold change /veh C5orf56 (11738089_at) / RFU CYB561 (11721691_x_at) / Fold change /veh CYB561 (11721691_x_at) / RFU ANKRD19P (11752326_a_at) / Fold change /veh ANKRD19P (11752326_a_at) / RFU OR2T12 /// OR2T33 /// OR2T8 (11738714_s_at) / Fold change /veh OR2T12 /// OR2T33 /// OR2T8 (11738714_s_at) / RFU VCAN (11748164_a_at) / Fold change /veh VCAN (11748164_a_at) / RFU JSRP1 (11732532_at) / Fold change /veh JSRP1 (11732532_at) / RFU KRTAP10-11 (11738290_x_at) / Fold change /veh KRTAP10-11 (11738290_x_at) / RFU MYO3A (11730013_a_at) / Fold change /veh MYO3A (11730013_a_at) / RFU EBF3 (11725865_a_at) / Fold change /veh EBF3 (11725865_a_at) / RFU CAMK2N1 (11719241_x_at) / Fold change /veh CAMK2N1 (11719241_x_at) / RFU C5orf56 (11738088_a_at) / Fold change /veh C5orf56 (11738088_a_at) / RFU OLFML3 (11715873_a_at) / Fold change /veh OLFML3 (11715873_a_at) / RFU LOC100653217 /// NTM (11731650_a_at) / Fold change /veh LOC100653217 /// NTM (11731650_a_at) / RFU MAPK11 (11762145_a_at) / Fold change /veh MAPK11 (11762145_a_at) / RFU FIZ1 (11724087_x_at) / Fold change /veh FIZ1 (11724087_x_at) / RFU OASL (11726364_x_at) / Fold change /veh OASL (11726364_x_at) / RFU SOX15 (11748057_x_at) / Fold change /veh SOX15 (11748057_x_at) / RFU CD79A (11719716_a_at) / Fold change /veh CD79A (11719716_a_at) / RFU HIST1H1D (11736915_at) / Fold change /veh HIST1H1D (11736915_at) / RFU CASKIN2 (11723855_a_at) / Fold change /veh CASKIN2 (11723855_a_at) / RFU LOC730098 (11760151_x_at) / Fold change /veh LOC730098 (11760151_x_at) / RFU OR4N2 (11742367_at) / Fold change /veh OR4N2 (11742367_at) / RFU PRRT2 (11749266_a_at) / Fold change /veh PRRT2 (11749266_a_at) / RFU SNX32 (11753110_a_at) / Fold change /veh SNX32 (11753110_a_at) / RFU CDHR5 (11726645_a_at) / Fold change /veh CDHR5 (11726645_a_at) / RFU RCAN1 (11760418_a_at) / Fold change /veh RCAN1 (11760418_a_at) / RFU FAM167A (11723789_a_at) / Fold change /veh FAM167A (11723789_a_at) / RFU FAM26E (11764081_at) / Fold change /veh FAM26E (11764081_at) / RFU ISYNA1 (11749810_s_at) / Fold change /veh ISYNA1 (11749810_s_at) / RFU ACY1 (11761880_at) / Fold change /veh ACY1 (11761880_at) / RFU 11764098_at / Fold change /veh 11764098_at / RFU SAMD14 (11745864_x_at) / Fold change /veh SAMD14 (11745864_x_at) / RFU NPB (11741838_a_at) / Fold change /veh NPB (11741838_a_at) / RFU TMPRSS6 (11731388_a_at) / Fold change /veh TMPRSS6 (11731388_a_at) / RFU KRTAP10-2 (11738614_at) / Fold change /veh KRTAP10-2 (11738614_at) / RFU ARHGAP8 /// PRR5-ARHGAP8 (11727945_x_at) / Fold change /veh ARHGAP8 /// PRR5-ARHGAP8 (11727945_x_at) / RFU KRTAP5-7 /// NADSYN1 (11734609_at) / Fold change /veh KRTAP5-7 /// NADSYN1 (11734609_at) / RFU RASL12 (11751679_a_at) / Fold change /veh RASL12 (11751679_a_at) / RFU CDKN2B (11736163_a_at) / Fold change /veh CDKN2B (11736163_a_at) / RFU PRF1 (11729649_at) / Fold change /veh PRF1 (11729649_at) / RFU, ZNF638 /// ZNF638-IT1 / Fold change vs veh, ZNF638 /// ZNF638-IT1 / RFU, PANK3 / Fold change vs veh, PANK3 / RFU, SH3YL1 / Fold change vs veh, SH3YL1 / RFU, ZEB2 / Fold change vs veh, ZEB2 / RFU, NRIP1 / Fold change vs veh, NRIP1 / RFU, PTTG1IP / Fold change vs veh, PTTG1IP / RFU, CAPN2 / Fold change vs veh, CAPN2 / RFU, MED14 / Fold change vs veh, MED14 / RFU, SNORA58 / Fold change vs veh, SNORA58 / RFU, C1orf63 / Fold change vs veh, C1orf63 / RFU, LRRFIP1 / Fold change vs veh, LRRFIP1 / RFU, NDUFAF7 / Fold change vs veh, NDUFAF7 / RFU, SLC12A2 / Fold change vs veh, SLC12A2 / RFU, IBTK / Fold change vs veh, IBTK / RFU, ESF1 / Fold change vs veh, ESF1 / Fold change vs veh, TMEM50B / RFU, TAOK1 / Fold change vs veh, TAOK1 / RFU, ACBD3 / Fold change vs veh, ACBD3 / RFU, TMA16 / Fold change vs veh, TMA16 / RFU, RWDD3 / Fold change vs veh, RWDD3 / RFU, BCAT1 / Fold change vs veh, BCAT1 / RFU, EDEM3 / Fold change vs veh, EDEM3 / RFU, TMEM33 / Fold change vs veh, TMEM33 / RFU, WDR75 / Fold change vs veh, WDR75 / RFU, AHCTF1 / Fold change vs veh, AHCTF1 / RFU, TFRC / Fold change vs veh, TFRC / RFU, ZDHHC17 / Fold change vs veh, ZDHHC17 / RFU, NOM1 / Fold change vs veh, NOM1 / RFU, ARL8B / Fold change vs veh, ARL8B / RFU, ZBTB11 / Fold change vs veh, ZBTB11 / RFU, TAMM41 / Fold change vs veh, TAMM41 / RFU, KIAA1704 /// LOC100996395 / Fold change vs veh, KIAA1704 /// LOC100996395 / RFU, ING1 / Fold change vs veh, ING1 / RFU, TRMT61B / Fold change vs veh, TRMT61B / RFU, FUBP3 / Fold change vs veh, FUBP3 / RFU, TP53 / Fold change vs veh, TP53 / RFU, TNKS2 / Fold change vs veh, TNKS2 / RFU, ZFP14 / Fold change vs veh, ZFP14 / RFU, ACTR2 / Fold change vs veh, ACTR2 / RFU, PPP3R1 / Fold change vs veh, PPP3R1 / RFU, PIK3R1 / Fold change vs veh, PIK3R1 / RFU, HNRNPA1 / Fold change vs veh, HNRNPA1 / RFU, RNF170 / Fold change vs veh, RNF170 / RFU, ZNF28 / Fold change vs veh, ZNF28 / RFU, RNGTT / Fold change vs veh, RNGTT / RFU, OGT / Fold change vs veh, OGT / RFU, BRD1 / Fold change vs veh, BRD1 / RFU, MARS / Fold change vs veh, MARS / RFU, ZNF655 / Fold change vs veh, ZNF655 / RFU, FAHD1 / Fold change vs veh, FAHD1 / RFU, BDP1 / Fold change vs veh, BDP1 / RFU, LRRCC1 / Fold change vs veh, LRRCC1 / RFU, ARID1A / Fold change vs veh, ARID1A / RFU, ZNF146 / Fold change vs veh, ZNF146 / RFU, ZNF330 / Fold change vs veh, ZNF330 / RFU, GPN3 / Fold change vs veh, GPN3 / RFU, C9orf123 / Fold change vs veh, C9orf123 / RFU, N4BP2L2 / Fold change vs veh, N4BP2L2 / RFU, ARFIP1 / Fold change vs veh, ARFIP1 / RFU, FAM179B / Fold change vs veh, FAM179B / RFU, BCL10 / Fold change vs veh, BCL10 / RFU, UHRF1BP1L / Fold change vs veh, UHRF1BP1L / RFU, BET1 / Fold change vs veh, BET1 / RFU, CNOT2 / Fold change vs veh, CNOT2 / RFU, ZNF268 / Fold change vs veh, ZNF268 / Fold change vs veh, ZNF507 / RFU, DGCR2 / Fold change vs veh, DGCR2 / RFU, WDSUB1 / Fold change vs veh, WDSUB1 / Fold change vs veh, HSP90B1 /// MIR3652 / RFU, ADSS / Fold change vs veh, ADSS / RFU, GK / Fold change vs veh, GK / RFU, ZNF148 / Fold change vs veh, ZNF148 / RFU, TAF9 / Fold change vs veh, TAF9 / RFU, SLC1A5 / Fold change vs veh, SLC1A5 / RFU, SLMO2 / Fold change vs veh, SLMO2 / RFU, ABCC4 / Fold change vs veh, ABCC4 / RFU, LOC101060439 /// RAP1B / Fold change vs veh, LOC101060439 /// RAP1B / RFU, RFX7 / Fold change vs veh, RFX7 / RFU, GTPBP10 / Fold change vs veh, GTPBP10 / RFU, CNEP1R1 / Fold change vs veh, CNEP1R1 / RFU, BIVM-ERCC5 /// ERCC5 / Fold change vs veh, BIVM-ERCC5 /// ERCC5 / RFU, ILF3 / Fold change vs veh, ILF3 / RFU 11762660_at / Fold change /veh 11762660_at / RFU VCAN (11757783_s_at) / Fold change /veh VCAN (11757783_s_at) / RFU DDX43 (11728927_at) / Fold change /veh DDX43 (11728927_at) / RFU KRT8 (11758188_x_at) / Fold change /veh KRT8 (11758188_x_at) / RFU NKD1 (11759106_at) / Fold change /veh NKD1 (11759106_at) / RFU SRD5A1 (11742802_a_at) / Fold change /veh SRD5A1 (11742802_a_at) / RFU TPSAB1 /// TPSB2 (11721975_s_at) / Fold change /veh TPSAB1 /// TPSB2 (11721975_s_at) / RFU GSTM3 (11746129_a_at) / Fold change /veh GSTM3 (11746129_a_at) / RFU IL23R (11737362_x_at) / Fold change /veh IL23R (11737362_x_at) / RFU TMEM51 (11727254_a_at) / Fold change /veh TMEM51 (11727254_a_at) / RFU PIWIL2 (11732686_x_at) / Fold change /veh PIWIL2 (11732686_x_at) / RFU ORM1 (11744905_x_at) / Fold change /veh ORM1 (11744905_x_at) / RFU CCDC152 (11743942_at) / Fold change /veh CCDC152 (11743942_at) / RFU ECM1 (11717891_a_at) / Fold change /veh ECM1 (11717891_a_at) / RFU IL23R (11748794_a_at) / Fold change /veh IL23R (11748794_a_at) / RFU TNFAIP8L3 (11732012_x_at) / Fold change /veh TNFAIP8L3 (11732012_x_at) / RFU MBOAT4 (11741988_at) / Fold change /veh MBOAT4 (11741988_at) / RFU 11764193_at / Fold change /veh 11764193_at / RFU TMEM53 (11763286_at) / Fold change /veh TMEM53 (11763286_at) / RFU MAGEB2 (11727129_at) / Fold change /veh MAGEB2 (11727129_at) / RFU TMEM200A (11744735_a_at) / Fold change /veh TMEM200A (11744735_a_at) / RFU CCDC152 (11751479_a_at) / Fold change /veh CCDC152 (11751479_a_at) / RFU FAM211A (11726209_a_at) / Fold change /veh FAM211A (11726209_a_at) / RFU RGS16 (11746705_a_at) / Fold change /veh RGS16 (11746705_a_at) / RFU VCAN (11755009_s_at) / Fold change /veh VCAN (11755009_s_at) / RFU RHOB (11743442_s_at) / Fold change /veh RHOB (11743442_s_at) / RFU RGS16 (11720943_a_at) / Fold change /veh RGS16 (11720943_a_at) / RFU RGS16 (11720944_at) / Fold change /veh RGS16 (11720944_at) / RFU, VPS4B / Fold change vs veh, VPS4B / RFU, CREB1 / Fold change vs veh, CREB1 / RFU, DNAJC13 / Fold change vs veh, DNAJC13 / RFU, GNAQ / Fold change vs veh, GNAQ / RFU, CDK5R1 / Fold change vs veh, CDK5R1 / RFU, ZRANB3 / Fold change vs veh, ZRANB3 / RFU, CUL4A / Fold change vs veh, CUL4A / RFU, CCNY / Fold change vs veh, CCNY / RFU, UFL1 / Fold change vs veh, UFL1 / RFU, COG3 / Fold change vs veh, COG3 / RFU, DIAPH2 / Fold change vs veh, DIAPH2 / RFU, SKA2 / Fold change vs veh, SKA2 / RFU, AFF3 / Fold change vs veh, AFF3 / RFU, LMF1 / Fold change vs veh, LMF1 / RFU, IPO11 / Fold change vs veh, IPO11 / RFU, DFFB / Fold change vs veh, DFFB / RFU, FOXP1 / Fold change vs veh, FOXP1 / RFU, CARD8 / Fold change vs veh, CARD8 / RFU, STRN3 / Fold change vs veh, STRN3 / RFU, ADK / Fold change vs veh, ADK / RFU, RASSF2 / Fold change vs veh, RASSF2 / RFU, WIPF1 / Fold change vs veh, WIPF1 / RFU, LARP1B / Fold change vs veh, LARP1B / RFU, RASA1 / Fold change vs veh, RASA1 / RFU, RB1 / Fold change vs veh, RB1 / RFU, PPFIA1 / Fold change vs veh, PPFIA1 / RFU, MAT2A / Fold change vs veh, MAT2A / RFU, CCT5 / Fold change vs veh, CCT5 / RFU, WDR92 / Fold change vs veh, WDR92 / RFU, CUX1 / Fold change vs veh, CUX1 / RFU, TTC7A / Fold change vs veh, TTC7A / RFU, TMEM135 / Fold change vs veh, TMEM135 / RFU, DEPTOR / Fold change vs veh, DEPTOR / RFU, CPM / Fold change vs veh, CPM / RFU, DNAJB6 / Fold change vs veh, DNAJB6 / RFU, CACNA2D3 / Fold change vs veh, CACNA2D3 / RFU, DTX4 / Fold change vs veh, DTX4 / RFU, TFCP2 / Fold change vs veh, TFCP2 / RFU, GMCL1 /// GMCL1P1 / Fold change vs veh, GMCL1 /// GMCL1P1 / RFU, AEBP2 / Fold change vs veh, AEBP2 / RFU, SNHG1 /// SNORD22 /// SNORD25 /// SNORD26 /// SNORD27 /// SNORD28 /// SNORD29 /// SNORD31 / Fold change vs veh, SNHG1 /// SNORD22 /// SNORD25 /// SNORD26 /// SNORD27 /// SNORD28 /// SNORD29 /// SNORD31 / Fold change (Aza/veh), C12orf56 (ProbeSet 11735607_a_at) / Fold change (ACY-1035/veh), C12orf56 (ProbeSet 11735607_a_at) / Fold change (Aza/veh), FGFR1OP (ProbeSet 11751329_s_at) / Fold change (ACY-1035/veh), FGFR1OP (ProbeSet 11751329_s_at) / Fold change (Aza/veh), VPS36 (ProbeSet 11739960_a_at) / Fold change (ACY-1035/veh), VPS36 (ProbeSet 11739960_a_at) / RFU SYPL1 (11715823_x_at) / Fold change /veh SYPL1 (11715823_x_at) / RFU IGFBP7 (11715501_s_at) / Fold change /veh IGFBP7 (11715501_s_at) / RFU REEP3 (11722064_at) / Fold change /veh REEP3 (11722064_at) / RFU IGLL1 (11728026_x_at) / Fold change /veh IGLL1 (11728026_x_at): dose or concentration left out as unconfirmed
Settings: MV-4-11 cells, 48 hours

SMILES: Nc1ccc(-c2cccs2)cc1NC(=O)c1ccc2c(c1)cc(C1CC1)n2CCN1CCOCC1 [ACY-1035]
- RFU LINC00158 (11744669_a_at): 7.93 RFU
